# Source: patent US8017398B2, “Method for assaying protein-protein interaction” (Life Technologies Corporation, priority 2003, dated 2011)
# Tests used:
# [1] = biological target: T1, human Type I Interferon Receptor (Homo sapiens, UniProt P17181+P48551); test: IFNAR1-GAL4-NF-κB + IFNAR2.2-TEV luciferase reporter assay, CHO-K1 cells; type: cell-based, hamster; conditions: control pcDNA3 plasmid
# T1 construct: expressed in transfected cells; host or cells: CHO-K1
# T1 sequence (P17181 28-557): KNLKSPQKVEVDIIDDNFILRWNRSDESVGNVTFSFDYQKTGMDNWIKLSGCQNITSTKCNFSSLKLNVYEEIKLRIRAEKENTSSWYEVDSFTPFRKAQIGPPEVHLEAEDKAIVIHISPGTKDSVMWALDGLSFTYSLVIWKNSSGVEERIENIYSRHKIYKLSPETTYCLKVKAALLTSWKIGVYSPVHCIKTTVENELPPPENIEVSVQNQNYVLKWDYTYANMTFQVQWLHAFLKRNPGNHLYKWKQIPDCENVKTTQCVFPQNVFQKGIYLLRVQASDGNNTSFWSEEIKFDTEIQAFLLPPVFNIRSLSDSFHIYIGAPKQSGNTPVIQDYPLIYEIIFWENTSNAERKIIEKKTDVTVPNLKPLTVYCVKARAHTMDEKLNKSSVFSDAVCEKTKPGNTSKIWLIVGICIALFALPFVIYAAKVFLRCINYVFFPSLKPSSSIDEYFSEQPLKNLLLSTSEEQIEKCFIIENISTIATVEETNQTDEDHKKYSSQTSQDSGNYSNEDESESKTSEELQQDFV
# T1 sequence (P48551 27-515): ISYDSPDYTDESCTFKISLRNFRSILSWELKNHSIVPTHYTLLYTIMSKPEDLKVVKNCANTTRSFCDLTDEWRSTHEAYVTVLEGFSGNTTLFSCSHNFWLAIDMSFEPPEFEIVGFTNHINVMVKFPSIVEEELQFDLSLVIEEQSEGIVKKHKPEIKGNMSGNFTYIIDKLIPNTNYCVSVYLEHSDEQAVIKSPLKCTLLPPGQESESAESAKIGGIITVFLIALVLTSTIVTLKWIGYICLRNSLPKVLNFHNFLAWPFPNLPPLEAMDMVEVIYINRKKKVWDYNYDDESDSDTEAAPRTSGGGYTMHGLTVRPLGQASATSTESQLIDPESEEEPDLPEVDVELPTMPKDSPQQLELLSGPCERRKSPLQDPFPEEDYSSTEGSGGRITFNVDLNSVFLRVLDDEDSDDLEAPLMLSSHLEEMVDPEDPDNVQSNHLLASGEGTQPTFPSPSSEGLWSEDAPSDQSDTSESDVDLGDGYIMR
# ADRB2 = biological target: T2, ADRB2 (Homo sapiens, UniProt P07550); test: chemiluminescence β-galactosidase reporter assay, ADRB2-tTA + ARRB2-TEV-NIa protease, clone 41 cells; type: cell-based; conditions: ADRB2-tTA low efficiency cleavage site
# T2 construct: to produce three, full length constructs encoding fusion proteins; expressed in transfected cells; host or cells: HEK-293T and clone 41 (HEK-293T derivative)
# T2 sequence (P07550 whole entry, the tested form may be a part): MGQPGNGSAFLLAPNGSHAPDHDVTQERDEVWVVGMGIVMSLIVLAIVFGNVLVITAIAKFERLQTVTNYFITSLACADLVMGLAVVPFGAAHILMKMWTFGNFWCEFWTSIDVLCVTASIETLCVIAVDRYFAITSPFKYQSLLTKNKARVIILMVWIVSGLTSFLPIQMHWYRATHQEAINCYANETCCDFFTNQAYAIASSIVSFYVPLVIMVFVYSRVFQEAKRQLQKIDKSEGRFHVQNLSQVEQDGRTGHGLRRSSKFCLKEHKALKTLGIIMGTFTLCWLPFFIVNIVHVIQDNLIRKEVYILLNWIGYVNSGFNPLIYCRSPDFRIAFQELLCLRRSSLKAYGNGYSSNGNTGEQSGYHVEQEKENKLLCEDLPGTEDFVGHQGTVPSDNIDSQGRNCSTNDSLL
Compound,effect on reporter gene activity in cells transfected with the reporter and control plasmids [1],"induction of reporter gene activity by agonist of another GPCR (P2Y1, P2Y2) (ADRB2)"
IFN-α,no effect,–
Nc1ncnc2c1ncn2[C@@H]1O[C@H](COP(=O)(O)OP(=O)(O)OP(=O)(O)O)[C@@H](O)[C@H]1O [ATP],–,Stimulation of another GPCR pathway was irrelevant
